Laboratory results reported in patent publication US20250122182A1 (Isosterix, Inc., priority 2023, published 2025).

Molecular target: Recombinant KAT6A/MOZ (488-778) protein (Homo sapiens (Human), UniProt Q92794)
Assay: KAT6A AlphaLISA Inhibition Screening Assay
Format: biochemical
Conditions: for inhibition at 1 µM: read-out: Average Kat6A % inhibition @ 1 μM; for inhibition at 1 µM / Average Kat6A % inhibition @ 1 μM: 1 μM test compound; for inhibition at 10 µM: read-out: Average Kat6A % inhibition @ 10 μM; for inhibition at 10 µM / Average Kat6A % inhibition @ 10 μM: 10 μM test compound
Protocol: The Kat6a inhibitory activity of test compounds was determined using an Alpha Screen-based detection method. The assay reactions were conducted in a volume of 10 μL in Alpha Plate, White 384 well plate (cat #6008280, Perkin Elmer). The enzymatic reactions were performed in assay buffer pH 8.0 (50 mM Tris-HCl, 0.1 mM EDTA, 0.01% Tween-20, 1 mM Dithiothreitol, 0.1% BSA (fatty acid free) and 330 nM TSA (Trichostatin A)). 10 μL reaction volume consisting of 25 nM of Recombinant KAT6A/MOZ (488-778) protein (Active motif, Catalog #81223), 400 nM Acetyl coenzyme A (Catalog #A2056, Sigma), 200 nM of Histone H3 peptide [(amino acids 1-21), biotin-labeled (BPS Biosciences, Catalog #52011)]. Test compounds were screened at different doses starting with 10 μM, 3 fold dilution and 10 point Dose response curve. Enzyme and compounds solution were pre-incubated in assay plate for 60 or 10 min at room temperature then substrate and Acetyl coenzyme A solution were added to the plate. After addition, the plate was sealed with adhesive seals and incubated for 120 minutes at room temperature.
After 120 minutes of incubation, […] of AlphaLISA anti-acetyl-Lysine acceptor beads (Perkin Elmer, Catalog #AL143C) were added to the plate and it was incubated for 60 minutes at room temperature. Then […] of Alpha Streptavidin donor beads (Perkin Elmer, Catalog #6760002S) were added to the plate which was further incubated for 60 minutes at room temperature. After incubation, the alpha signal was recorded by using Perkin Elmer Envision multi-mode reader. Percent inhibition of enzyme activity by test compounds were determined relative to vehicle control.

Chain of Recombinant KAT6A/MOZ (488-778) protein (Q92794 488-778): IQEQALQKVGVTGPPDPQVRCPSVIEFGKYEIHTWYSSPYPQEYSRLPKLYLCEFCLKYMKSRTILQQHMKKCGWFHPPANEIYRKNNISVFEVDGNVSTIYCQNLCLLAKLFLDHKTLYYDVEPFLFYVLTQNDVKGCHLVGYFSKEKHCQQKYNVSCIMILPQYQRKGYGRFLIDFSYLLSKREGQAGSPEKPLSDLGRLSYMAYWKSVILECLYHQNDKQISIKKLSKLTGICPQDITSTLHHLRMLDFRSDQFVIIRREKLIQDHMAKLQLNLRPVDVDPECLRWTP

Compound	inhibition at 1 µM	inhibition at 10 µM	Average Kat6A % inhibition @ 1 μM	Average Kat6A % inhibition @ 10 μM
COC(=O)NCc1cnn(Cc2cc(OC)c3c(NS(=O)(=O)c4cc(C(F)F)ccc4OC)noc3c2)c1 [Syn. Ex. 135, methyl ((1-((3-((5-(difluoromethyl)-2-methoxyphenyl)sulfonamido)-4-methoxybenzo[d]isoxazol-6-yl)methyl)-1H-pyrazol-4-yl)methyl)carbamate]	96%	97%	–	–
COc1ccc(C(C)C)cc1S(=O)(=O)Nc1noc2cc(Cn3cc(CNS(C)(=O)=O)cn3)cc(OC)c12 [Syn. Ex. 38, 5-isopropyl-2-methoxy-N-(4-methoxy-6-((4-(methylsulfonamidomethyl)-1H-pyrazol-1-yl)methyl)benzo[d]isoxazol-3-yl)benzenesulfonamide]	100%	99%	–	–
CCc1ccc(OC)c(S(=O)(=O)Nc2noc3cc(Oc4nc(CNC(=O)OC)cs4)cc(OC)c23)c1 [Syn. Ex. 104, methyl ((2-((3-((5-ethyl-2-methoxyphenyl)sulfonamido)-4-methoxybenzo[d]isoxazol-6-yl)oxy)thiazol-4-yl)methyl)carbamate]	25%	92%	–	–
COC(=O)NCc1cnn(Cc2cc(OC)c3c(NS(=O)(=O)c4cc(C)ccc4OC)noc3c2)c1 [Syn. Ex. 88, methyl ((1-((4-methoxy-3-((2-methoxy-5-methylphenyl)sulfonamido)benzo[d]isoxazol-6-yl)methyl)-1H-pyrazol-4-yl)methyl)carbamate]	99%	98%	–	–
CCc1ccc(OC)c(S(=O)(=O)Nc2noc3cc(Cn4cc(CNS(=O)(=O)CCOC)cn4)cc(OC)c23)c1 [Syn. Ex. 18, 5-ethyl-2-methoxy-N-(4-methoxy-6-((4-(((2-methoxyethyl)sulfonamido)methyl)-1H-pyrazol-1-yl)methyl)benzo[d]isoxazol-3-yl)benzenesulfonamide]	97%	98%	–	–
CCc1ccc(OCC(=O)N2CCOCC2)c(S(=O)(=O)Nc2noc3cc(Cn4cc(CNC(=O)OC)cn4)cc(OC)c23)c1 [Syn. Ex. 66, methyl ((1-((3-((5-ethyl-2-(2-morpholino-2-oxoethoxy)phenyl)sulfonamido)-4-methoxybenzo[d]isoxazol-6-yl)methyl)-1H-pyrazol-4-yl)methyl)carbamate]	93%	100%	–	–
C=C(F)C(=O)NCc1cnn(Cc2cc(OC)c3c(NS(=O)(=O)c4ccccc4OC)noc3c2)c1 [Syn. Ex. 40, 2-fluoro-N-((1-((4-methoxy-3-((2-methoxyphenyl)sulfonamido)benzo[d]isoxazol-6-yl)methyl)-1H-pyrazol-4-yl)methyl)acrylamide]	99%	99%	–	–
C=C(F)C(=O)NCc1cnn(Cc2cc(OC)c3c(NS(=O)(=O)c4cc(C(C)C)ccc4OC)noc3c2)c1 [Syn. Ex. 59, 2-fluoro-N-((1-((3-((5-isopropyl-2-methoxyphenyl)sulfonamido)-4-methoxybenzo[d]isoxazol-6-yl)methyl)-1H-pyrazol-4-yl)methyl)acrylamide]	100%	100%	–	–
CCc1ccc(OCc2ccccc2)c(S(=O)(=O)Nc2noc3cc(Cn4cc(CNC(=O)OC)cn4)cc(OC)c23)c1 [Syn. Ex. 93, methyl ((1-((3-((2-(benzyloxy)-5-ethylphenyl)sulfonamido)-4-methoxybenzo[d]isoxazol-6-yl)methyl)-1H-pyrazol-4-yl)methyl)carbamate]	90%	98%	–	–
COC(=O)NCc1cnn(Cc2cc(OC)c3c(NS(=O)(=O)c4cccc5cc(C)cnc45)noc3c2)c1 [Syn. Ex. 129, methyl ((1-((4-methoxy-3-((3-methylquinoline)-8-sulfonamido)benzo[d]isoxazol-6-yl)methyl)-1H-pyrazol-4-yl)methyl)carbamate]	–	–	102%	102%
CCc1ccc(OCc2cccnc2)c(S(=O)(=O)Nc2noc3cc(Cn4cc(CNC(=O)OC)cn4)cc(OC)c23)c1 [Syn. Ex. 123, methyl ((1-((3-((5-ethyl-2-(pyridin-3-ylmethoxy)phenyl)sulfonamido)-4-methoxybenzo[d]isoxazol-6-yl)methyl)-1H-pyrazol-4-yl)methyl)carbamate]	100%	100%	–	–
CCc1ccc(OCCN2CCOC2=O)c(S(=O)(=O)Nc2noc3cc(Cn4cc(CNC(=O)OC)cn4)cc(OC)c23)c1 [Syn. Ex. 77, methyl ((1-((3-((5-ethyl-2-(2-(2-oxooxazolidin-3-yl)ethoxy)phenyl)sulfonamido)-4-methoxybenzo[d]isoxazol-6-yl)methyl)-1H-pyrazol-4-yl)methyl)carbamate]	96%	98%	–	–
CCOC(=O)NCc1cnn(Cc2cc(OC)c3c(NS(=O)(=O)c4cc(CC)ccc4OC)noc3c2)c1 [Syn. Ex. 16, ethyl ((1-((3-((5-ethyl-2-methoxyphenyl)sulfonamido)-4-methoxybenzo[d]isoxazol-6-yl)methyl)-1H-pyrazol-4-yl)methyl)carbamate]	98%	98%	–	–
C#CC(=O)NCc1cnn(Cc2cc(OC)c3c(NS(=O)(=O)c4cc(CC)ccc4OCc4nn[nH]n4)noc3c2)c1 [Syn. Ex. 70, N-((1-((3-((2-((2H-tetrazol-5-yl)methoxy)-5-ethylphenyl)sulfonamido)-4-methoxybenzo[d]isoxazol-6-yl)methyl)-1H-pyrazol-4-yl)methyl)propiolamide]	100%	100%	–	–
C#CC(=O)N1Cc2cn(Cc3cc(OC)c4c(NS(=O)(=O)c5cc(OC)ccc5OC)noc4c3)nc2C1 [Syn. Ex. 5, 2,5-dimethoxy-N-(4-methoxy-6-((5-propioloyl-5,6-dihydropyrrolo[3,4-c]pyrazol-2(4H)-yl)methyl)benzo[d]isoxazol-3-yl)benzenesulfonamide]	83%	100%	–	–
COC(=O)NCc1cnn(Cc2cc3onc(NS(=O)(=O)c4ccccc4OC)c3cc2OC)c1 [Syn. Ex. 145, methyl ((1-((5-methoxy-3-((2-methoxyphenyl)sulfonamido)benzo[d]isoxazol-6-yl)methyl)-1H-pyrazol-4-yl)methyl)carbamate]	108%	108%	–	–
C=C(F)C(=O)NCc1cnn(Cc2cc(OC)c3c(NS(=O)(=O)c4cc(CC)ccc4OCCNC(C)=O)noc3c2)c1 [Syn. Ex. 82, N-((1-((3-((2-(2-acetamidoethoxy)-5-ethylphenyl)sulfonamido)-4-methoxybenzo[d]isoxazol-6-yl)methyl)-1H-pyrazol-4-yl)methyl)-2-fluoroacrylamide]	94%	99%	–	–
CCc1ccc(OCc2nnco2)c(S(=O)(=O)Nc2noc3cc(Cn4cc(CNC(=O)OC)cn4)cc(OC)c23)c1 [Syn. Ex. 127, methyl ((1-((3-((2-((1,3,4-oxadiazol-2-yl)methoxy)-5-ethylphenyl)sulfonamido)-4-methoxybenzo[d]isoxazol-6-yl)methyl)-1H-pyrazol-4-yl)methyl)carbamate]	101%	100%	–	–
COC(=O)NCc1cnn(Cc2cc(OC)c3c(NS(=O)(=O)c4cc5c(cc4OC)CCO5)noc3c2)c1 [Syn. Ex. 126, methyl ((1-((4-methoxy-3-((5-methoxy-2,3-dihydrobenzofuran)-6-sulfonamido)benzo[d]isoxazol-6-yl)methyl)-1H-pyrazol-4-yl)methyl)carbamate]	–	–	101%	100%
C#CC(=O)NCc1cnn(Cc2cc(OC)c3c(NS(=O)(=O)c4c(OC)ccnc4OC)noc3c2)c1 [Syn. Ex. 85, N-((1-((3-((2,4-dimethoxypyridine)-3-sulfonamido)-4-methoxybenzo[d]isoxazol-6-yl)methyl)-1H-pyrazol-4-yl)methyl)propiolamide]	–	–	91%	95%
C=C(F)C(=O)NCc1cnc(Oc2cc(OC)c3c(NS(=O)(=O)c4cc5c(cc4OC)CCC5)noc3c2)s1 [Syn. Ex. 143, 2-fluoro-N-((2-((4-methoxy-3-((6-methoxy-2,3-dihydro-1H-indene)-5-sulfonamido)benzo[d]isoxazol-6-yl)oxy)thiazol-5-yl)methyl)acrylamide]	–	–	101%	99%
C=C(F)C(=O)NCc1cnn(Cc2cc(OC)c3c(NS(=O)(=O)c4cc(CC)ccc4OCC(=O)N4CCOCC4)noc3c2)c1 [Syn. Ex. 68, N-((1-((3-((5-ethyl-2-(2-morpholino-2-oxoethoxy)phenyl)sulfonamido)-4-methoxybenzo[d]isoxazol-6-yl)methyl)-1H-pyrazol-4-yl)methyl)-2-fluoroacrylamide]	96%	100%	–	–
